Reference: patent US20120295915A1, “AZABENZIMIDAZOLES AS FATTY ACID SYNTHASE INHIBITORS” (priority 2009, published 2012)

Target: FAS (Homo sapiens, UniProt P49327)
Assay: FAS assay (Assay #1 residual NADPH detection or Assay #2 CoA detection with CPM dye)
Type: biochemical
Settings: in at least one experimental run; tested generally according to the assays described (assay #1 or #2 not specified)
Experimental: FAS assay FAS activity was measured through one of the two following assays.
Inhibition of FAS activity can be measured based on the detection of residual NADPH substrate after the FAS assay is quenched. This assay is run as a 10 μL endpoint assay in 384-well format, where the reaction contains 20 μM malonyl-CoA, 2 μM acetyl-CoA, 30 μM NADPH and 40 nM FAS in 50 mM sodium phosphate, pH 7.0. The assay is run by sequentially dispensing 5 μl of a malonyl-CoA solution, then enzyme solution (containing the acetyl-CoA, and NADPH) into a black, low volume assay plate (Greiner 784076) pre-dispensed with […] compound solutions in DMSO. The reaction is incubated at ambient temperature for 60 minutes, then quenched with 5 μL of a developing solution composed of 90 μM resazurin, 0.3 IU/ml diaphorase in 50 mM sodium phosphate, pH 7.0. The developed reaction is read on a Molecular Devices Analyst or Acquest (or equivalent) plate reader using a 530 nm excitation wavelength filter, a 580 nm emission filter, and 561 nm dichroic filter. The test compounds are prepared in neat DMSO at a concentration of 10 mM. For inhibition curves, compounds are diluted using a three fold serial dilution and tested at 11 concentrations (e.g. 25 μM-0.42 nM). Curves are analysed using Activityl)ase and XLfit, and results are expressed as pIC50 values.
Inhibition of FAS can also be quantified based on the detection of the CoA products with a thio-reactive coumarin dye. This assay is run as a 10 μL endpoint assay in 384-well format, where the reaction contains 20 μM malonyl-CoA, 20 μM acetyl-CoA, 40 μM NADPH and 2 nM FAS in 50 mM sodium phosphate, pH 7.0, and 0.04% Tween-20. The assay is run by adding 5 μL enzyme solution to a black, low volume assay plate (Greiner 784076) pre-dispensed with 100 nl compound solutions in DMSO. After 30 minutes, 5 μL substrate is added, and the reaction incubated at ambient temperature for an additional 60 minutes. The reaction is then quenched with 10 μL of 6M guanidine-HCl containing 50 μM CPM (7-diethylamino-3-(4′-maleimidylphenyl)-4-methylcoumarin (CPM; thio-reactive dye), and incubated for 30 minutes. The plate is read on an Envision (PerkinElmer) or equivalent plate reader using a 380 nm excitation wavelength filter, and a 486 nm emission filter. Data fitting and compound preparations are done as described above.

Sequence of FAS (P49327 whole entry): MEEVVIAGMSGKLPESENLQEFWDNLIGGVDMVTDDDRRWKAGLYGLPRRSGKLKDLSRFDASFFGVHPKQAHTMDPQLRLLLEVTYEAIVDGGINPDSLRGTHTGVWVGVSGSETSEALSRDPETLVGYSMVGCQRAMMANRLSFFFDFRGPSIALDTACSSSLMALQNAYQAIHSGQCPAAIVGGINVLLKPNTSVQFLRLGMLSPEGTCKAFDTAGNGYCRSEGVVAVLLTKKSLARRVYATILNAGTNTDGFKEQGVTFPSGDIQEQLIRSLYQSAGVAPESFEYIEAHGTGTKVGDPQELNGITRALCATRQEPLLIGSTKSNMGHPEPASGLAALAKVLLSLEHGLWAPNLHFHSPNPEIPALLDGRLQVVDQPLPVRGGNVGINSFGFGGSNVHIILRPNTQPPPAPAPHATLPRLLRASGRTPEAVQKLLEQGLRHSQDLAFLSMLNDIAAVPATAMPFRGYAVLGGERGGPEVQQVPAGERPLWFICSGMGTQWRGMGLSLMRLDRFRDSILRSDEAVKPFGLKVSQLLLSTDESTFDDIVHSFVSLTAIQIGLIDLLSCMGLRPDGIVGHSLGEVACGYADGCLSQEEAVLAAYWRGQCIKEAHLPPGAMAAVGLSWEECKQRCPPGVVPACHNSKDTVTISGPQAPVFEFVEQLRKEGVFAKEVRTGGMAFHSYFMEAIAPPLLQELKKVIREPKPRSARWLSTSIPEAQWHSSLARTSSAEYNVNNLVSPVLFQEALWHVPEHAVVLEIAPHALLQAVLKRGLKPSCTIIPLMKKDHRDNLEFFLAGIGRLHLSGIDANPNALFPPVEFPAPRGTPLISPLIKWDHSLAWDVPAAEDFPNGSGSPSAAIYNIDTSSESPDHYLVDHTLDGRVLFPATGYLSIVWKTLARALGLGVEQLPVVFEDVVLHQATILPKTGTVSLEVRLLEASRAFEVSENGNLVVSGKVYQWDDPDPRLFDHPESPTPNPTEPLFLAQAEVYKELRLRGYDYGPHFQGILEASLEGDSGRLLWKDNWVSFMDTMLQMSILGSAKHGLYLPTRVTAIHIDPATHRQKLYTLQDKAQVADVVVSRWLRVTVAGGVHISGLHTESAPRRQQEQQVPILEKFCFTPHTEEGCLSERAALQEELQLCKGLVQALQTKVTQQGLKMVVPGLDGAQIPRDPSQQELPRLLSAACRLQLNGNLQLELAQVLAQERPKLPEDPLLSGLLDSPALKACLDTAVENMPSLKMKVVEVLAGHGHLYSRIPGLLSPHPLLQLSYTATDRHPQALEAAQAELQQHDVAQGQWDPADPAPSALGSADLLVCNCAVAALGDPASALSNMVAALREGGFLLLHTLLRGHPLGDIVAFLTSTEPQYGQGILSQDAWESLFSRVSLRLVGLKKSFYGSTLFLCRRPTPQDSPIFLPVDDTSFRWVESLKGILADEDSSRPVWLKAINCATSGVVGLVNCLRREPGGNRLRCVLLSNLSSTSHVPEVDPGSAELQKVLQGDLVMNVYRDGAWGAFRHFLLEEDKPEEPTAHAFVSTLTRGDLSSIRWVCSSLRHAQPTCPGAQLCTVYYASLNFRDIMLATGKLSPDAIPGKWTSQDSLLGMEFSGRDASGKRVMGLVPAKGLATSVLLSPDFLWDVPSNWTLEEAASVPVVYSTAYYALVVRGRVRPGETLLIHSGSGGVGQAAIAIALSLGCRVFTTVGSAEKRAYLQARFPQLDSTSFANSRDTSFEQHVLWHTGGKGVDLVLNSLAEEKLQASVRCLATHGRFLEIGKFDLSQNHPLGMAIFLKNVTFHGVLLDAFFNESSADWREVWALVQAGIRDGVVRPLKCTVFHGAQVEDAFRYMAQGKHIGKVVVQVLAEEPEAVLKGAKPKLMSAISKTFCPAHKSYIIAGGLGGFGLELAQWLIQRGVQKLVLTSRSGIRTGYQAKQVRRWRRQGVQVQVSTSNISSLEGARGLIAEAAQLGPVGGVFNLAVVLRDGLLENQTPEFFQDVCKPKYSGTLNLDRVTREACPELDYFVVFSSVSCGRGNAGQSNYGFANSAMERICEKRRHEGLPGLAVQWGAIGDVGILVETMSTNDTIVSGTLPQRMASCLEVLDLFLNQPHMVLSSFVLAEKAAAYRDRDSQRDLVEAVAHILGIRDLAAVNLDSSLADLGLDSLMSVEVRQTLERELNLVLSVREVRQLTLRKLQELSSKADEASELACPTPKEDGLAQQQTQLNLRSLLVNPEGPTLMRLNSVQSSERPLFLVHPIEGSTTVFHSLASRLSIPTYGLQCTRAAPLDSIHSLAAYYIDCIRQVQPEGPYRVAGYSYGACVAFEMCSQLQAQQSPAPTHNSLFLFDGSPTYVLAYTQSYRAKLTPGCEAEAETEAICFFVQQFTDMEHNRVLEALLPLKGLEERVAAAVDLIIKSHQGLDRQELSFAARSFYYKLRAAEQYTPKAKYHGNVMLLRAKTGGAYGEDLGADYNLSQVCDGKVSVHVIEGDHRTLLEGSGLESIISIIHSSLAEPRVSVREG

Row | SMILES | IC50
1 | O=C(C1CC1)N1CC[C@@H](Cn2c(-c3ccc(-c4ccc5scnc5c4)cc3)nc3cnccc32)C1 [Example 58, 2-[4-(1,3-benzothiazol-5-yl)phenyl]-1-{[(3S)-1-(cyclopropylcarbonyl)-3-pyrrolidinyl]methyl}-1H-imidazo[4,5-c]pyridine] | 0.01 µM
2 | O=C(C1CC1)N1CC[C@@H](Cn2c(-c3ccc(-c4cnc5[nH]ccc5c4)cc3)nc3cnccc32)C1 [Example 54, 1-{[(3S)-1-(cyclopropylcarbonyl)-3-pyrrolidinyl]methyl}-2-[4-(1H-pyrrolo[2,3-b]pyridin-5-yl)phenyl]-1H-imidazo[4,5-c]pyridine] | 0.142 µM
3 | O=C(C1CC1)N1CC[C@@H](Cn2c(-c3ccc(-c4cccc5[nH]ccc45)cc3)nc3cnccc32)C1 [Example 55, 1-{[(3S)-1-(cyclopropylcarbonyl)-3-pyrrolidinyl]methyl}-2-[4-(1H-indol-4-yl)phenyl]-1H-imidazo[4,5-c]pyridine] | 0.013 µM
4 | Cc1cccc(-c2ccc(-c3nc4ncccc4n3C[C@@H]3CCN(C(=O)C4CC4)C3)cc2)c1 [Example 2, 1-{[(3S)-1-(cyclopropylcarbonyl)-3-pyrrolidinyl]methyl}-2-(3′-methyl-4-biphenylyl)-1H-imidazo[4,5-b]pyridine] | 0.063 µM

Further lines, results first:

Row | IC50 | SMILES
5 | 0.019 µM | O=C(C1CC1)N1CC[C@@H](Cn2c(-c3ccc(-c4ccc5[nH]ccc5c4)cc3)nc3cnccc32)C1 [Example 25, 1-{[(3S)-1-(cyclopropylcarbonyl)-3-pyrrolidinyl]methyl}-2-[4-(1H-indol-5-yl)phenyl]-1H-imidazo[4,5-c]pyridine]
6 | 0.06 µM | O=C(C1CC1)N1CC[C@@H](Cn2c(-c3ccc(-c4ccc5occc5c4)cc3)nc3cnccc32)C1 [Example 22, 2-[4-(1-benzofuran-5-yl)phenyl]-1-{[(3S)-1-(cyclopropylcarbonyl)-3-pyrrolidinyl]methyl}-1H-imidazol[4,5-c]pyridine]
7 | 0.129 µM | O=C(C1CC1)N1CC[C@@H](Cn2c(-c3ccc(-c4ccccc4)cc3)nc3c(Cl)ncnc32)C1 [Example 46, 8-(4-biphenylyl)-6-chloro-9-{[(3S)-1-(cyclopropylcarbonyl)-3-pyrrolidinyl]methyl}-9H-purine]
8 | 0.045 µM | COc1ccc(-c2ccc(-c3nc4cccnc4n3C[C@@H]3CCN(C(=O)C4CC4)C3)cc2)cc1 [Example 27, 3-{[(3S)-1-(cyclopropylcarbonyl)-3-pyrrolidinyl]methyl}-2-[4′-(methyloxy)-4-biphenylyl]-3H-imidazo[4,5-b]pyridine]
9 | 0.009 µM | O=C(C1CC1)N1CC[C@@H](Cn2c(-c3ccc(-c4ccc5cc[nH]c5c4)cc3)nc3cccnc32)C1 [Example 35, 3-{[(3S)-1-(cyclopropylcarbonyl)-3-pyrrolidinyl]methyl}-2-[4-(1H-indol-6-yl)phenyl]-3H-imidazo[4,5-b]pyridine]
10 | 1.06 µM | CN(C)C(=O)N1CC[C@@H](Cn2c(-c3ccc(-c4ccccc4)cc3)nc3cnccc32)C1 [Example 19, (3S)-3-{[2-(4-biphenylyl)-1H-imidazo[4,5-c]pyridin-1-yl]methyl}-N,N-dimethyl-1-pyrrolidinecarboxamide]
